Test results published in ChEMBL document CHEMBL5131397, “Discovery and Optimization of Pyrazole Amides as Inhibitors of ELOVL1” (J Med Chem, 2021).
pIC50: −log10 of the molar value. Active and inactive are the calls of the source. No cut-off for these calls is given here.

What was measured:
[1] = Toxicity in juvenile Sprague-Dawley rat assessed as corneal mineralization at 5 to 75 mg/kg/day, po treatment started from postnatal day 18 to 114 days; format: organism-based; conditions: in vivo, dose lower 5 mg/kg/day, time lower 18 day, dose upper 75 mg/kg/day, time upper 114 day
[2] = Reduction in C26:0/C16:0 LPC level in wild-type Sprague-Dawley rat at 30 mg/kg, po qd treated for 7 days by LC-MS/MS analysis; format: functional; set-up: scale not given: the % may be the effect or the level left; conditions: time 7 day
[3] = molecular target: T1, Very long chain fatty acid elongase 1 (Homo sapiens, UniProt Q9BW60); assay: Inhibition of ELOVL1 in CALD patient-derived human lymphocyte assessed as reduction of C26:0 VLCFA synthesis incubated for 48 hrs by cellular assay; format: cell-based
T1 sequence (Q9BW60 whole entry): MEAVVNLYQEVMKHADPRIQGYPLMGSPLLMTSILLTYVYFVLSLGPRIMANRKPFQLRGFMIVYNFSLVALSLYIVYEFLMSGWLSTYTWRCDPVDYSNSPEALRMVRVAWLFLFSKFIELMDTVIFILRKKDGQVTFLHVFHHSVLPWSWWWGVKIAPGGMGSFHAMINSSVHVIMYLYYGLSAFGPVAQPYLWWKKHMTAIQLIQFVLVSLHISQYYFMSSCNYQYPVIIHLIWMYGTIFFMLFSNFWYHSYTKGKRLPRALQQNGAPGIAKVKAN

[4] = Oral bioavailability in Beagle dog at 3 mg/kg upto 24 hrs by LC/MS/MS analysis; format: ADME, organism-based, Canis lupus familiaris; conditions: in vivo
[5] = Toxicity in Sprague-Dawley rat assessed as ocular inflammation at 5 mg/kg/day, po administered for 8 weeks by microscopic observation analysis; format: organism-based; conditions: in vivo, 1344 h
[6] = Half life in Beagle dog at 0.5 mg/kg, iv upto 48 hrs by LC/MS/MS analysis; format: ADME, organism-based, Canis lupus familiaris; conditions: in vivo
[7] = Clearance in mouse at 1 mg/kg, iv upto 48 hrs by LC/MS/MS analysis; format: ADME, organism-based; conditions: in vivo
Mus musculus [8] = assay: Reduction in C24:0/C16:0 LPC level in ABCD1 knock out mouse CNS at 1 to 10 mg/kg, po qd measured after 3 months of dosing by LC-MS/MS analysis; format: functional, organism-based; conditions: dose 1-10 mg/kg
Mus musculus [9] = assay: Reduction in C26:0 LPC level in ABCD1 KO mouse blood administered orally qd for 105 days by LC-MS/MS analysis; format: functional, tissue-based; conditions: route po, time 105.0 day, DDE = dose-dependent effect
[10] = molecular target: Voltage-gated inwardly rectifying potassium channel KCNH2 (Homo sapiens, UniProt Q12809); assay: Inhibition of human ERG by patch-clamp assay; format: toxicity
Sequence of Voltage-gated inwardly rectifying potassium channel KCNH2 (Q12809 whole entry): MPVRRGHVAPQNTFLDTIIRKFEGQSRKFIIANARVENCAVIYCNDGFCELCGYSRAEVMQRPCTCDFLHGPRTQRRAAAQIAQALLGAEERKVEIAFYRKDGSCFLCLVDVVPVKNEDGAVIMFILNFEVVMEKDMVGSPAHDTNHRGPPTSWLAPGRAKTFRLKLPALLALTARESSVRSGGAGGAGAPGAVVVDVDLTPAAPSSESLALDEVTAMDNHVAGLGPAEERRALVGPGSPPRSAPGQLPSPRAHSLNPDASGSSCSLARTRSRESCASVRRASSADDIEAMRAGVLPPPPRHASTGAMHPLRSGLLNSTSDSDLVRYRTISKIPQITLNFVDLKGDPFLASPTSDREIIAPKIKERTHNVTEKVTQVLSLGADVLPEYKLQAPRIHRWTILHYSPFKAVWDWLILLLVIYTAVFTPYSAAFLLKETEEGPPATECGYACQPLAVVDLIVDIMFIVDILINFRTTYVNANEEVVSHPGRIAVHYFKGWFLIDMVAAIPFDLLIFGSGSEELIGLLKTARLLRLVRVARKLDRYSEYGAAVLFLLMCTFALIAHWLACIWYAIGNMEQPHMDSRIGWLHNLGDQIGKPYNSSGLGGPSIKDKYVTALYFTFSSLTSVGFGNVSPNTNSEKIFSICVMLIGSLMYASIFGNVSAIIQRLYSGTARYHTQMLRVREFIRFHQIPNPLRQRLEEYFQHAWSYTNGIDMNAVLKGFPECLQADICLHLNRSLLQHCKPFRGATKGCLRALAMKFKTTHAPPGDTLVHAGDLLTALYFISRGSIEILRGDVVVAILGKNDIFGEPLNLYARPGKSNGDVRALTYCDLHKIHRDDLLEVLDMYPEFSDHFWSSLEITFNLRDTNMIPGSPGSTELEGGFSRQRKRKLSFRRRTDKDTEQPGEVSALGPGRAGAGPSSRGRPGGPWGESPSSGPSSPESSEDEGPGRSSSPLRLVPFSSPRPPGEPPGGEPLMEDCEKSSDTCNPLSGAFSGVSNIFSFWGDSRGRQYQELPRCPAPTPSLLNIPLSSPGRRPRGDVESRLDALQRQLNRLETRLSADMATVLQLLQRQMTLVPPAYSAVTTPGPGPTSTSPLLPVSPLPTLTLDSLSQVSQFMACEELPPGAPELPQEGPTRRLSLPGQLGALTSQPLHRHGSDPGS

[11] = Clearance in Cynomolgus monkey at 1 mg/kg, iv upto 48 hrs by LC/MS/MS analysis; format: ADME, organism-based, Macaca fascicularis; conditions: in vivo
[12] = Toxicity in juvenile Sprague-Dawley rat assessed as corneal lesions at 5 to 75 mg/kg/day, po treatment started from postnatal day 18 to 114 days; format: organism-based; conditions: in vivo, dose lower 5 mg/kg/day, time lower 18 day, dose upper 75 mg/kg/day, time upper 114 day
[13] = Plasma protein binding in rat at 5 uM; format: ADME, cell-free; conditions: read-out: PPB (converted)
[14] = Toxicity in Cynomolgus monkey assessed as dry and red scaly areas on eyelids at 5 to 50 mg/kg/day, po administered for 14 days by macroscopic observation analysis; format: organism-based, Macaca fascicularis; conditions: in vivo, 336 h, dose 5-50 mg/kg/day, time 14 day
[15] = Volume of distribution at steady state in Cynomolgus monkey at 1 mg/kg, iv upto 48 hrs by LC/MS/MS analysis; format: ADME, organism-based, Macaca fascicularis; conditions: in vivo, read-out: Vdss
[16] = Toxicity in Cynomolgus monkey assessed as ataxia at 50 mg/kg/day, po administered for 14 days; format: organism-based, Macaca fascicularis; conditions: in vivo, 336 h, time 14 day
[17] = Reduction of C26:0 /C16:0 LPC level in ABCD1 KO mouse blood at 20 mg/kg, po qd for 8 months by LC-MS/MS analysis relative to control; format: functional; set-up: scale not given: the % may be the effect or the level left; conditions: 5840 h
[18] = molecular target: T1, Very long chain fatty acid elongase 1; assay: Inhibition of ELOVL1 in AMN 1 patient-derived fibroblast assessed as reduction of C26:0 VLCFA synthesis incubated for 48 hrs by cellular assay; format: cell-based
[19] = molecular target: Rho-associated protein kinase 2 (Homo sapiens) (UniProt O75116); assay: Inhibition of ROCK 2 (unknown origin) at 10 uM
Sequence of Rho-associated protein kinase 2 (Homo sapiens) (O75116 whole entry, looked up): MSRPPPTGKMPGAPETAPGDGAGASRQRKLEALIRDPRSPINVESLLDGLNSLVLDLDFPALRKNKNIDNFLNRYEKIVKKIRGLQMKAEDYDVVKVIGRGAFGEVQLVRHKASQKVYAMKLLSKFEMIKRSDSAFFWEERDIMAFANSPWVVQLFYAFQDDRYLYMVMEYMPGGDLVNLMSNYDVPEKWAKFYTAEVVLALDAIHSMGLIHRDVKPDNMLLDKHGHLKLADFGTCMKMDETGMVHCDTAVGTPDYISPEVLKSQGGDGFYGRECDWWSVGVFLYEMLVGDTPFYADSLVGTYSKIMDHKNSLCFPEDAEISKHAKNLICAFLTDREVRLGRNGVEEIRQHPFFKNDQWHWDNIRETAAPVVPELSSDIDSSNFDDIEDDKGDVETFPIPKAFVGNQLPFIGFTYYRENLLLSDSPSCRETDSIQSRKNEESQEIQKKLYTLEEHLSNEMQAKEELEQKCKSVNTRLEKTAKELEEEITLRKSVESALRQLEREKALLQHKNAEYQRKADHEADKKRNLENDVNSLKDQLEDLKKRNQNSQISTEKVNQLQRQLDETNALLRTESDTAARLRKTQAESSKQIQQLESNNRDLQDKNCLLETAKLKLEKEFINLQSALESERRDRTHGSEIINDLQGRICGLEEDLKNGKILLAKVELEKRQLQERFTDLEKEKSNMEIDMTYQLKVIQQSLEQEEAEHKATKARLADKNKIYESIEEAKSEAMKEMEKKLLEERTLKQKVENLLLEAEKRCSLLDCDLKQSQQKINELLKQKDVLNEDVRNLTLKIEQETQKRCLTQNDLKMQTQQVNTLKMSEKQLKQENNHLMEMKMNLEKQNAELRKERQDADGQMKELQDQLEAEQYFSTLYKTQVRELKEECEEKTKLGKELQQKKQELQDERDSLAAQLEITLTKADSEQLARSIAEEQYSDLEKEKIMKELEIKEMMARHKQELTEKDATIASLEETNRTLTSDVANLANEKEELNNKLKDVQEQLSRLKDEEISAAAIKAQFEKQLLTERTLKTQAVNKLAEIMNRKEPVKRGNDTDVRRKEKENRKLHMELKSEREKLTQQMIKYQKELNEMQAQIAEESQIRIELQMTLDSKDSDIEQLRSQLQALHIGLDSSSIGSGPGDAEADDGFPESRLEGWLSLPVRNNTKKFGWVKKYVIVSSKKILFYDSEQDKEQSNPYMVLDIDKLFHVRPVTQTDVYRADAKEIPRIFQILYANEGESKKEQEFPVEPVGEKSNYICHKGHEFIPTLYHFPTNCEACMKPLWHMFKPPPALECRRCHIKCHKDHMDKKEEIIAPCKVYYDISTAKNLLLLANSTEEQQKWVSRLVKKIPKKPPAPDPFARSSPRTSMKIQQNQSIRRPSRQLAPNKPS

[20] = Reduction in C26:0/C16:0 LPC level in ABCD1 knock out mouse CNS at 5 mg/kg, po qd measured after 8 months of dosing by LC-MS/MS analysis; format: functional; set-up: scale not given: the % may be the effect or the level left; conditions: 5840 h
[21] = Intrinsic clearance in rat hepatocytes assessed per million cells; format: ADME, cell-based, Hepatocyte; conditions: read-out: CLH
[22] = Reduction in C26:0/C16:0 LPC level in ABCD1 knock out mouse CNS at 1 mg/kg, po qd measured after 3 months of dosing by LC-MS/MS analysis; format: functional; set-up: scale not given: the % may be the effect or the level left; conditions: 2190 h
Fibroblast = assay: Reduction in C26:0/C16:0 lysophosphatidyl choline levels in primary human CALD patient-derived fibroblast incubated for 48 hrs; format: functional, cell-based
[23] = Reduction in C26:0 LPC level in Cynomolgus monkey plasma at 15 mg/kg, po qd for 13 weeks by LC-MS/MS analysis (reference value: 2.495 ng/ml); format: functional, Macaca fascicularis
[24] = Toxicity in Sprague-Dawley rat assessed as corneal neovascularization at 5 mg/kg/day, po administered for 8 weeks by macroscopic observation analysis; format: organism-based; conditions: in vivo, 1344 h
[25] = Toxicity in juvenile Sprague-Dawley rat assessed as clonic convulsions 5 to 75 mg/kg/day, po treatment started from postnatal day 75 to 114 days; format: organism-based; conditions: in vivo, dose lower 5 mg/kg/day, time lower 75 day, dose upper 75 mg/kg/day, time upper 114 day
[26] = Reduction in C26:0 LPC level in wild-type C57BL/6 mouse blood at 2 to 32 mg/kg, po qd for 105 days by LC-MS/MS analysis relative to control; format: functional; set-up: scale not given: the % may be the effect or the level left; conditions: dose 2-32 mg/kg, time 105 day
[27] = Toxicity in Sprague-Dawley rat assessed as corneal abnormalities at 5 mg/kg/day, po administered for 8 weeks measured after cessation of dosing; format: organism-based; conditions: in vivo, 1344 h

## O=C(Nc1ccn(-c2ccnc(F)c2)n1)C1(c2ccccc2F)CC1
[1]
  Activity: Toxic
[2]
  Activity: 67%
[3]
  pIC50: 7.82
[4]
  bioavailability: 77%
[5]
  Activity: Toxic
[6]
  half-life: 3.5 h
[7]
  clearance: 10.7 mL/min/kg
Mus musculus [8]
  Activity: Active
Mus musculus [9]
  Activity: Dde
[10]
  pIC50: < 4.52
[11]
  clearance: 7 mL/min/kg
[12]
  Activity: Toxic
[13]
  fraction unbound at 5 µM: 0.071
[14]
  Activity: Toxic
[15]
  Vd: 3 L/kg
[16]
  Activity: Toxic
[17]
  Activity: 68%
[18]
  pIC50: 7.37
[19]
  inhibition: > 50%
[20]
  Activity: 65%
[21]
  hepatocyte CLint: 14 µL/min/1e6 cells
[22]
  Activity: 25%
Fibroblast
  Activity: Active
[23]
  Activity: 0.4475 ng/mL
[24]
  Activity: Toxic
[25]
  Activity: Toxic
[26]
  Activity: 67%
[27]
  Activity: Toxic
